Measurements taken from patent US10702575B2, “Pharmaceutical composition for preventing or treating mycobacterium species infection and method using the same” (Seoul National University R&DB Foundation, priority 2017, dated 2020).
In brackets after ≈: the same amount, converted by molar mass. *1 amine or outer side, *2 acyl side, *3 side chain or, on linkers, in order; H or OH if unused. Where a SMILES comes first, the peptide text is derived from it. Bridges are numbered along the chain shown (N, C = ends). [ ]: non-standard residue; d: D form. The star is where a group is joined. ξ: configuration not given here. NMeTrp(4-OMe) = CN[CH](Cc1c[nH]c2cccc(OC)c12)C(=O)O; X1 = O=C(C(N[*:1])C(O)c1ccccc1)[*:2]; ξNMe2Val = CC(C)C(C(=O)*)N(C)C; NMeT = CN[CH](C(=O)O)[CH](C)O; NMeL = CN[CH](CC(C)C)C(=O)O; NMeV = CN[CH](C(=O)O)C(C)C

Key:
LC3 = LC3 immunoblotting of macrophage cytolysate; format: cell-based, mouse; settings: for amount of LC3-II after pre-treatment, compared with treatment with OMS-A or OMS-B (FIG. 7B): pre-treatment with 10 μM 3-MA or 100 nM Baf-A before OMS-A or OMS-B; for amount of LC3-II (FIG. 7A): 1 μM, 5 μM, 10 μM, about 24 hours, macrophage
Protocol: The obtained cytolysate was subjected to immunoblotting using anti-LC3 antibody (available from Cell Signaling) and anti-β-actin antibody (available from Santa Cruz). The results thereof are shown in FIG. 7A (“U” represents “untreated”). Further, in the case of pre-treatment of a macrophage with 10 μM of 3-methyladenine (3-MA), which is an autophagy inhibitor, or 100 nM of Bafilomycin A1 (Baf-A), which is an H^+-ATPase inhibitor, the immunoblot images of the macrophage are shown in FIG. 7B (“U” represents “untreated”, and “SC” represents “solvent control”).

M. marinum = test: Mycobacterium marinum-Drosophila melanogaster infection system; format: in vivo; settings: for viability of Drosophila melanogaster infected with M. marinum (FIG. 5A): OMS-A 1 μM or 10 μM, AMK 1 μg/ml in culture medium, about 30 days
Mtb H37Rv strain = format: cell-based, Mycobacterium tuberculosis; settings: REMA; for anti-Mycobacterium tuberculosis activity as compared with INH, EMB, and SQ109 (FIG. 2): RFU vs concentration
[1] = tested on: Bone-marrow-derived macrophages (BMDM); test: LC3 puncta formation assay in macrophage; format: cell-based, mouse; settings: 10 μM, about 24 hours
Protocol: LC3 puncta formation and lipidation assay (Eisuke and Noboru, Autophagy, 2010, vol. 6, p. 764-776), which is mainly used in macrophage autophagy measurement, was performed. 10 μM of OMS-A or 10 μM of OMS-B was added to BMDM prepared in Section 4, and then cultured for about 24 hours. As a negative control, PBS was used. Subsequently, macrophage was stained with 4′,6-diamidino-2-phenylindole (DAPI, available from Sigma) and anti-LC3 antibody (available from Cell Signaling), and the number of LC3 puncta per macrophage was measured. The images of the stained macrophages are shown in FIG. 6A (“UN” represents “untreated”), and the number of LC3 puncta per macrophage are shown in FIG. 6B (**: p<0.01).

LC3B = test: flow cytometry of macrophage with anti-LC3B antibody; format: cell-based, mouse; settings: 10 μM, about 24 hours
Protocol: Subsequently, a mean fluorescence intensity (MFI) of the macrophage was measured using the anti-LC3B antibody (available from Cell Signaling) according to flow cytometry.

Mtb phagosome = test: co-localization of Mtb phagosome with LC3 or LAMP2 in macrophage; format: cell-based, mouse; settings: 10 μM, about 24 hours, ERFP-Mtb macrophage
[2] = tested on: AMP-activated protein kinase (AMPK) cell signaling pathway; format: cell-based, mouse
NF-κB = format: cell-based, mouse; settings: 1 μM, 5 μM, 10 μM, about 6 hours
macrophage = test: mCherry-EGFP-LC3B autophagic flux in transfected macrophage; settings: 10 μM, about 24 hours
Description: Further, a macrophage was transfected with a retrovirus vector that expresses mCherry-enhanced green fluorescent protein (EGFP)-LC3B. […] Fluorescent images of the transfected macrophage were obtained, which are shown in FIG. 9 (“UN” represented “untreated”, and “N” represents “nucleus”).

Cn1cnc(N)c2ncnc1-2 [3-MA, 3-methyladenine, reference compound]
amount of LC3-II after pre-treatment, compared with treatment with OMS-A or OMS-B (FIG. 7B) (LC3): decreased

NCC[C@H](O)C(=O)N[C@@H]1C[C@H](N)[C@@H](O[C@H]2O[C@H](CN)[C@@H](O)[C@H](O)[C@H]2O)[C@H](O)[C@H]1O[C@H]1O[C@H](CO)[C@@H](O)[C@H](N)[C@H]1O [AMK, amikacin, reference compound]
viability of Drosophila melanogaster infected with M. marinum (FIG. 5A) (M. marinum): increased viability

CO/C1=C\C(C)=C\[C@@H](C)[C@@H](O)[C@@H](C)C/C(C)=C/C=C/[C@H](OC)[C@@H]([C@@H](C)[C@@H](O)[C@H](C)[C@@]2(O)C[C@@H](O)[C@H](C)[C@@H](C(C)C)O2)OC1=O [Baf-A, Bafilomycin A1, reference compound]
amount of LC3-II after pre-treatment, compared with treatment with OMS-A or OMS-B (FIG. 7B) (LC3): increased

CNC(C(=O)NC(C(=O)NC1C(=O)N(C)C(C(C)O)C(=O)NC(C(C)C)C(=O)N(C)C(CC(C)C)C(=O)NC(C(C)C)C(=O)N(C)C(C(C)C)C(=O)N(C)C(Cc2c[nH]c3cccc(OC)c23)C(=O)NC(C(C)C)C(=O)NC(C(O)c2ccccc2)C(=O)NC(C(C)C)C(=O)OC1C)C(C)C)C(C)C (stereo not drawn) [OMS-A, Ohmyungsamycin A] (H-[NMeV]VT[NMeT]V[NMeL]V[NMeV][NMeTrp(4-OMe)]V[X1]V; ester 3-C; configuration not given here)
MIC50 (bacterial growth 50% MIC) (Mtb H37Rv strain): 0.057 µM (≈ 0.0832 µg/mL)
anti-Mycobacterium tuberculosis activity as compared with INH, EMB, and SQ109 (FIG. 2) (Mtb H37Rv strain): excellent anti-Mycobacterium tuberculosis activity
CFUs of M. marinum present in Drosophila melanogaster (FIG. 5B) (M. marinum; 1 μM or 10 μM OMS-A, compared with negative control (SC)): decreased in a concentration-dependent manner
viability of Drosophila melanogaster infected with M. marinum (FIG. 5A) (M. marinum): increased viability
LC3 puncta formation per macrophage (FIGS. 6A, 6B) [1]: great
amount of LC3-II (FIG. 7A) (LC3): increased as compared with LC3-I
LC3B expression, mean fluorescence intensity (FIG. 8) (LC3B): increased level
co-localization of LAMP2 and Mtb phagosome (FIGS. 10C, 10D) (Mtb phagosome): increased
co-localization of LC3 and Mtb phagosome (FIGS. 10A, 10B) (Mtb phagosome): increased
phoshorylation in Ser78 (S79) of ACC (FIGS. 11A, 11B) [2]: induced
phoshorylation in Thr172 of AMPKα (FIGS. 11A, 11B) [2]: induced
NF-κB luciferase activity (FIG. 12B) (NF-κB): decreases in a concentration-dependent manner
number of red puncta, mCherry-EGFP-LC3B (FIG. 9) (macrophage): increased

COc1cccc2[nH]cc(CC3C(=O)NC(C(C)C)C(=O)NC(C(O)c4ccccc4)C(=O)NC(C(C)C)C(=O)OC(C)C(NC(=O)C(NC(=O)C(C(C)C)N(C)C)C(C)C)C(=O)N(C)C(C(C)O)C(=O)NC(C(C)C)C(=O)N(C)C(CC(C)C)C(=O)NC(C(C)C)C(=O)N(C)C(C(C)C)C(=O)N3C)c12 (stereo not drawn) [OMS-B, Ohmyungsamycin B] (ξNMe2Val-VT[NMeT]V[NMeL]V[NMeV][NMeTrp(4-OMe)]V[X1]V; ester 2-C; configuration not given here)
MIC50 (bacterial growth 50% MIC) (Mtb H37Rv strain): 0.117 µM (≈ 0.172 µg/mL)
anti-Mycobacterium tuberculosis activity as compared with INH, EMB, and SQ109 (FIG. 2) (Mtb H37Rv strain): excellent anti-Mycobacterium tuberculosis activity
LC3 puncta formation per macrophage (FIGS. 6A, 6B) [1]: great
amount of LC3-II (FIG. 7A) (LC3): increased as compared with LC3-I
LC3B expression, mean fluorescence intensity (FIG. 8) (LC3B): increased level
co-localization of LAMP2 and Mtb phagosome (FIGS. 10C, 10D) (Mtb phagosome): increased
co-localization of LC3 and Mtb phagosome (FIGS. 10A, 10B) (Mtb phagosome): increased
phoshorylation in Ser78 (S79) of ACC (FIGS. 11A, 11B) [2]: induced
phoshorylation in Thr172 of AMPKα (FIGS. 11A, 11B) [2]: induced
NF-κB luciferase activity (FIG. 12B) (NF-κB): decreases in a concentration-dependent manner
number of red puncta, mCherry-EGFP-LC3B (FIG. 9) (macrophage): increased
